Test results taken from patent publication US9896434B2, “Substituted indanone compounds as GPR119 modulators for the treatment of diabetes, obesity, dyslipidemia and related disorders” (SANOFI, priority 2014, dated 2018).

Target: T1, human GPR119 (Homo sapiens, UniProt Q8TDV5)
T1 construct: expressed in transfected cells
T1 sequence (Q8TDV5 1-335): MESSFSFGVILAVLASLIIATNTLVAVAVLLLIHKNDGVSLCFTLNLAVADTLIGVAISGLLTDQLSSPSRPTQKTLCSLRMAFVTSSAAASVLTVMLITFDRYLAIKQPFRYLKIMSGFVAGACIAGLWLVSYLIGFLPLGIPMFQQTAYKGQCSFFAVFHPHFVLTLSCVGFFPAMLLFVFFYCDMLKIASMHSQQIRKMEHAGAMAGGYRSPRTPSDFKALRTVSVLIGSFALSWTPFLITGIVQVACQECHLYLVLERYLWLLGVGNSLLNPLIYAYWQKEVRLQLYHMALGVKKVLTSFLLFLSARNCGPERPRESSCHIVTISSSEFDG
Test: Functional cellular assay measuring GPR119-mediated cAMP release (HTRF)
Type: cell-based
Conditions: HEK-293 cell line stably expressing recombinant human GPR119; cAMP response, 30 minutes at room temperature
Method: Functional Cellular Assays Measuring GPR119-Mediated cAMP Release
Compounds of the invention, which are agonists of GPR119, were characterized by functional assays measuring the cAMP response of HEK-293 cell lines stably expressing recombinant GPR119 from man, mouse or rat, or by using a hamster cell line HIT-T15 expressing GPR119 endogenously. The cAMP content was determined using a kit based on homogenous time-resolved fluorescence (HTRF) from Cisbio Corp. (cat. no. 62AM4PEC). For preparation, cells were split into T175 culture flasks and grown to near confluency in medium (DMEM/10% FCS for HEK-293 cells, and F-12K medium/10% horse serum/2.5% FCS for HIT-T15 cells, respectively). Medium was then removed and cells washed with PBS lacking calcium and magnesium ions, followed by proteinase treatment with accutase (Sigma-Aldrich, cat. no. A6964). Detached cells were washed and resuspended in assay buffer (1×HBSS; 20 mM HEPES, 0.1% BSA, 2 mM IBMX) and cellular density determined. They were then diluted to 400000 cells/mL and 25 μL-aliquots dispensed to the wells of 96-well plates. For measurement, 25 μL of test compound in assay buffer was added and incubated for 30 minutes at room temperature. After addition of HTRF reagents diluted in lysis buffer, the plates were incubated for 1 hour, followed by measuring the fluorescence ratio at 665 vs. 620 nm. Potency of the agonists was quantified by determining the concentrations that caused 50% of the maximal response/activation (EC50). See Table 4 for exemplary data obtained using the cell line expressing human GPR119.

SMILES | EC50 [µM]
CN(C)C(=O)CC1Cc2c(F)cc(N3CC[C@@H](Oc4ccc(OCC5CC5)nc4)C3=O)cc2C1=O (stereo partly drawn) [Example 3-06, 2-[6-[(3R)-3-[[6-(cyclopropylmethoxy)-3-pyridyl]oxy]-2-oxo-pyrrolidin-1-yl]-4-fluoro-1-oxo-indan-2-yl]-N,N-dimethyl-acetamide] | 0.046
CNC(=O)CC1Cc2c(F)cc(N3CC[C@@H](Oc4ccc(OCC5CC5)nc4)C3=O)cc2C1=O (stereo partly drawn) [Example 3-08, 2-[6-[(3R)-3-[[6-(cyclopropylmethoxy)-3-pyridyl]oxy]-2-oxo-pyrrolidin-1-yl]-4-fluoro-1-oxo-indan-2-yl]-N-methyl-acetamide] | 0.066
O=C(CC1Cc2c(F)cc(N3CC[C@@H](Oc4ccc(OCC5CC5)nc4)C3=O)cc2C1=O)NCCO (stereo partly drawn) [Example 3-09, 2-{6-[(R)-3-(6-cyclopropylmethoxy-pyridin-3-yloxy)-2-oxo-pyrrolidin-1-yl]-4-fluoro-1-oxo-indan-2-yl}-N-(2-hydroxy-ethyl)-acetamide] | 0.289
CN(C)C(=O)CC1CC(=O)c2cc(N3CC[C@@H](Oc4ccc(OCC5CC5)nc4)C3=O)cc(F)c21 (stereo partly drawn) [Example 3-11, 2-[5-[(3R)-3-[[6-(cyclopropylmethoxy)-3-pyridyl]oxy]-2-oxo-pyrrolidin-1-yl]-7-fluoro-3-oxo-indan-1-yl]-N,N-dimethyl-acetamide] | 0.059

The remaining compounds from weak to strong by EC50, led by results:

EC50 [µM] | SMILES
0.083 | O=C1c2cc(N3CC[C@@H](Oc4ccc(OCC5CC5)nc4)C3=O)cc(F)c2CC1CC(=O)N1CCOCC1 (stereo partly drawn) [Example 3-07, (3R)-3-[[6-(cyclopropylmethoxy)-3-pyridyl]oxy]-1-[7-fluoro-2-(2-morpholino-2-oxo-ethyl)-3-oxo-indan-5-yl]pyrrolidin-2-one]
0.073 | NC(=O)CC1CC(=O)c2cc(N3CC[C@@H](Oc4ccc(OCC5CC5)nc4)C3=O)cc(F)c21 (stereo partly drawn) [Example 3-10, 2-[5-[(3R)-3-[[6-(cyclopropylmethoxy)-3-pyridyl]oxy]-2-oxo-pyrrolidin-1-yl]-7-fluoro-3-oxo-indan-1-yl]acetamide]
